Data reported in EP0723577B1, “DETERGENT COMPOSITIONS CONTAINING SILVER ANTI-TARNISHING AGENTS” (UNILEVER N.V., priority 1993, dated 1995).

Tests used:
[1] = pKa determination by titration of a 0.001M solution with 1N NaOH; format: physicochemical
Experimental: As used herein, the term "pKa" means a pH value at which 50% of the heterocyclic ring moieties of the compound (particularly the five-membered rings in the case of the purine class compounds) are in ionic form.
The pH of this solution was adjusted to 3.0 with H2SO4. The solution was then titrated with 1N NaOH to pH 11.0. A plot of mls. NaOH vs. pH for each sample was prepared. The pKa of the compound is that point where the maximum change in pH as a function of mls. NaOH is observed.

[2] = Silver plates held in the compositions for 25 minutes, evaluated for tarnishing; conditions: for Effective Silver Anti-Tarnishing: 4 wt.% epsilon-phthalimido peroxyhexanoic acid
Experimental: (§1) A comparison of anti-tarnishing performance of purine class compounds within the scope of the invention and azole compounds outside the invention was conducted. The selected compounds were incorporated in an amount of 1 wt.% in a machine dishwashing composition containing 4 wt.% epsilon-phthalimido peroxyhexanoic acid as the bleaching agent. The pH values of the compositions were adjusted by the addition of a 50% solution of sodium hydroxide or concentrated sulfuric acid, as necessary.
(§2) Copper plates and silver plates were held in each of the compositions for 25 minutes, removed, rinsed with deionized water and evaluated for tarnishing. […]
as §1, with “1,3-N azole” for “purine class”
as §2

[3] = Tarnish-monitoring experiments in a dishwasher, monitors visually ranked 0 to 6 against the Example 1 reference scale; conditions: general description, compositions containing the compound
Experimental: The wash program consisted of a pre-wash at 40°C, a mainwash at 55°C, two intermediate rinses, and a final rinse at 65°C.
The mainwash pH with these compositions was typically 8.7. Silver-plated spoons (2 per run) were the monitors used in the test. The spoons were supplied by Oneida Silversmiths, USA. The monitors were washed in a commercially available hand dishwash liquid and rinsed with deionized water and acetone before use. In the dishwasher the monitors were kept apart from each other in the cutlery basket. At the end of a single-run machine program, the monitors were visually analyzed for the presence of colours and the loss of gloss.
This ranking of spoons was used as a reference scale for all subsequent Examples.

[4] = Example 13, Tables 20 and 21, read-out: pKa of compounds
[5] = Example 13: 1 wt.% compound, pH of composition 8.5
[6] = Example 13: 1 wt.% compound, pH of composition 11.0
[7] = Example 5: 1 wt.% compound, pH of composition 8.5
[8] = Example 5: 1 wt.% compound, pH of composition 11.0
[9] = Example 5: 1 wt.% compound, pH of composition 8.6
[10] = Example 13: 1 wt.% compound, pH of composition 8.6

c1nnn[nH]1 [1,2,3,5-Tetrazole]
pKa [1, 4]: 8.4 | pH of compositions in which the compound is effective ([2]; Example 13): greater than 9.4 | effectiveness as a silver anti-tarnishing agent, in words ([2]; Example 13, pH of 8.5): not effective | effectiveness as a silver anti-tarnishing agent, in words ([2]; Example 13, pH of 9.5 and greater): effective | Effective Silver Anti-Tarnishing [2, 5]: No (A tarnish score of 3 or less was considered effective as a silver anti-tarnishing compound) | Effective Silver Anti-Tarnishing ([2]; Example 13: 1 wt.% compound, pH of composition 9.5): Yes (A tarnish score of 3 or less was considered effective as a silver anti-tarnishing compound) | Effective Silver Anti-Tarnishing ([2]; Example 13: 1 wt.% compound, pH of composition 10.5): Yes (A tarnish score of 3 or less was considered effective as a silver anti-tarnishing compound) | Effective Silver Anti-Tarnishing [2, 6]: Yes (A tarnish score of 3 or less was considered effective as a silver anti-tarnishing compound)

c1ccc(-c2ncc[nH]2)cc1 [2-Phenylimidazole, reference compound]
pKa [1]: 8.8 | Effective Silver Anti-Tarnishing [2, 7]: No (A tarnish score of 3 or less was considered effective as a silver anti-tarnishing compound) | Effective Silver Anti-Tarnishing [2, 8]: No (A tarnish score of 3 or less was considered effective as a silver anti-tarnishing compound) | prevention of silver tarnishing, in words ([2]; Example 13, pH 11.0): did not prevent silver tarnishing | Effective Silver Anti-Tarnishing [2, 5]: No (A tarnish score of 3 or less was considered effective as a silver anti-tarnishing compound) | Effective Silver Anti-Tarnishing [2, 6]: No (A tarnish score of 3 or less was considered effective as a silver anti-tarnishing compound)

Nc1nc[nH]n1 [3-amino-1,2,4-triazole]
pKa [1]: 7.3 | Effective Silver Anti-Tarnishing ([2]; Example 13: 1 wt.% compound, pH of composition 8.3): Yes (A tarnish score of 3 or less was considered effective as a silver anti-tarnishing compound)

Nc1nn[nH]n1 [4-amino-1,2,3,5-tetrazole]
pKa [1]: 8.1 | effectiveness as a silver anti-tarnishing agent, in words ([2]; Example 13, pH of 8.8): not effective | Effective Silver Anti-Tarnishing ([2]; Example 13: 1 wt.% compound, pH of composition 8.8): No (A tarnish score of 3 or less was considered effective as a silver anti-tarnishing compound)

O=[N+]([O-])c1ccc2cn[nH]c2c1 [6-Nitroindazole, reference compound]
pKa [1]: 6.8 | Effective Silver Anti-Tarnishing [2, 7]: No (A tarnish score of 3 or less was considered effective as a silver anti-tarnishing compound) | Effective Silver Anti-Tarnishing [2, 8]: No (A tarnish score of 3 or less was considered effective as a silver anti-tarnishing compound) | Effective Silver Anti-Tarnishing [2, 5]: No (A tarnish score of 3 or less was considered effective as a silver anti-tarnishing compound) | Effective Silver Anti-Tarnishing [2, 6]: No (A tarnish score of 3 or less was considered effective as a silver anti-tarnishing compound)

Nc1ncnc2nc[nH]c12 [Adenine]
pKa [1]: 7.2 | prevention of silver tarnishing, in words ([2]; Example 5, pH 6.9): did not prevent tarnishing | prevention of silver tarnishing, in words ([2]; Example 5, pH 8.6): prevented silver tarnishing | Effective Silver Anti-Tarnishing ([2]; Example 5: 1 wt.% compound, pH of composition 6.9): No (A tarnish score of 3 or less was considered effective as a silver anti-tarnishing compound) | Effective Silver Anti-Tarnishing [2, 9]: Yes (A tarnish score of 3 or less was considered effective as a silver anti-tarnishing compound)

Oc1ncnc2[nH]ncc12 [Allopurinol]
pKa [1]: 6.1 | Effective Silver Anti-Tarnishing [2, 9]: Yes (A tarnish score of 3 or less was considered effective as a silver anti-tarnishing compound)

N=C(N)NCCC[C@H](N)C(=O)O [Arginine, reference compound]
pKa [1]: 9.1 | pKa of compounds [1]: 9.1 | Effective Silver Anti-Tarnishing [2, 9]: No (A tarnish score of 3 or less was considered effective as a silver anti-tarnishing compound) | Effective Silver Anti-Tarnishing [2, 10]: No (A tarnish score of 3 or less was considered effective as a silver anti-tarnishing compound)

c1ccc2[nH]cnc2c1 [Benzimidazole]
pKa of compounds [1]: 5.5 | Effective Silver Anti-Tarnishing [2, 10]: Yes (A tarnish score of 3 or less was considered effective as a silver anti-tarnishing compound)

Nc1nc2nc[nH]c2c(=O)[nH]1 [Guanine]
pKa [1]: 6.7 | prevention of silver tarnishing, in words ([2]; Example 5, pH 7.0): did not prevent tarnishing | prevention of silver tarnishing, in words ([2]; Example 5, pH 8.6): prevented silver tarnishing | Effective Silver Anti-Tarnishing ([2]; Example 5: 1 wt.% compound, pH of composition 7.0): No (A tarnish score of 3 or less was considered effective as a silver anti-tarnishing compound) | Effective Silver Anti-Tarnishing [2, 9]: Yes (A tarnish score of 3 or less was considered effective as a silver anti-tarnishing compound)

N[C@@H](Cc1c[nH]cn1)C(=O)O [Histidine]
Effective Silver Anti-Tarnishing [2, 10]: Yes (A tarnish score of 3 or less was considered effective as a silver anti-tarnishing compound)

O=c1[nH]cnc2nc[nH]c12 [Hypoxanthine]
pKa ([1]; pKa of compounds): 6 | Effective Silver Anti-Tarnishing [2, 9]: Yes (A tarnish score of 3 or less was considered effective as a silver anti-tarnishing compound)

c1c[nH]cn1 [Imidazole]
pKa [1, 4]: 6.9 | Effective Silver Anti-Tarnishing [2, 10]: Yes (A tarnish score of 3 or less was considered effective as a silver anti-tarnishing compound)

c1cn[nH]c1 [Pyrazole, reference compound]
prevention of heavy tarnishing of silver and silver-plated articles, in words [3]: substantially ineffective | pKa [1]: 11.5 | Effective Silver Anti-Tarnishing [2, 9]: No (A tarnish score of 3 or less was considered effective as a silver anti-tarnishing compound) | Effective Silver Anti-Tarnishing [2, 10]: No (A tarnish score of 3 or less was considered effective as a silver anti-tarnishing compound)

c1cc[nH]c1 [Pyrrole, reference compound]
prevention of heavy tarnishing of silver and silver-plated articles, in words [3]: substantially ineffective | Effective Silver Anti-Tarnishing [2, 9]: No (A tarnish score of 3 or less was considered effective as a silver anti-tarnishing compound) | Effective Silver Anti-Tarnishing [2, 10]: No (A tarnish score of 3 or less was considered effective as a silver anti-tarnishing compound)

O=c1[nH]c(=O)c2[nH]c(=O)[nH]c2[nH]1 [Uric Acid]
pKa [1]: 4.6 | Effective Silver Anti-Tarnishing [2, 9]: Yes (A tarnish score of 3 or less was considered effective as a silver anti-tarnishing compound)

O=c1[nH]c(=O)c2[nH]cnc2[nH]1 [Xanthine]
pKa [1]: 7 | Effective Silver Anti-Tarnishing [2, 9]: Yes (A tarnish score of 3 or less was considered effective as a silver anti-tarnishing compound)

c1ccc2[nH]ncc2c1 [indazole, reference compound]
prevention of heavy tarnishing of silver and silver-plated articles, in words [3]: substantially ineffective

c1cncnc1 [pyrimidine, reference compound]
prevention of heavy tarnishing of silver and silver-plated articles, in words [3]: substantially ineffective
